Data reported in patent publication US7250399B2, “Compounds having growth hormone releasing activity” (The Administrators of the Tulane Educational Fund, priority 1998, dated 2007).
Values joined by “and” are separate entries in the source; they are usually repeats but may differ in a detail not shown here. Identical values can stand only once.

How the values were obtained:
[1] = tested on: Growth Hormone release; assay: In Vivo Release of Growth Hormone in Adult Beagle Dogs; design: unit not given here
Method: (§1) In vitro and in vivo activity of certain compounds were determined in rats and adult beagle dogs (in vivo activity only).

[2] = tested on: Growth Hormone release; assay: In Vitro Release of Growth Hormone in Rat; type: cell-based
Method: as §1

[3] = tested on: Growth Hormone release; assay: In Vivo GH Release in Rats (i.v., serum GH by RIA); design: species or system Sprague-Dawley rats; details: i.v., serum 10 min after injection
Method: Immature female Sprague-Dawley rats were obtained from the Charles River Laboratories (Wilmington, Mass.). After arrival they were housed at 25° C. with a 14:10 hour light:dark cycle. Water and Purina rat chow were available ad libitum. Pups were kept with their mothers until 21 days of age.
Twenty-six day old rats, six rats per treatment group, were anesthetized interperitoneally with 50 mg/kg of pentobarbital 20 minutes prior to i.v. treatment with peptide. Normal saline with 0.1% gelatin was the vehicle for intravenous (i.v.) injections of the peptides. The anesthetized rats, weighing 55-65 grams, were injected i.v. with the quantity of grown hormone releasing compounds indicated in Table 3. Injection was made as a 0.1 mL solution into the jugular vein.
All animals were sacrificed by guillotine 10 minutes after final test injection (see Table 3). Trunk blood for the determination of blood GH levels was collected following decapitation. After allowing the blood to clot, it was centrifuged and the serum was separated from the clot. Serum was kept frozen until the day of sampling for radioimmunoassay (RIA) determination of growth hormone levels according to the following procedure, as developed by the National Institute of Arthritis, Diabetes and Digestive and Kidney Diseases (NIADDK).
Reagents are generally added to the RIA analysis tubes at a single sitting, at refrigerator temperature (about 4° C.) in the following sequence: • (a) buffer, • (b) “cold” (i.e., non-radioactive) standard or unknown serum sample to be analyzed, • (c) radio-iodinated growth hormone antigen, and • (d) growth hormone antiserum.
Reagent addition is generally carried out so that there is achieved a final RIA tube dilution of about 1:30,000 (antiserum to total liquid volume; vol:vol).
The mixed reagents are then typically incubated at room temperature (about 25° C.) for about 24 hours prior to addition of a second antibody (e.g., goat or rabbit anti-monkey gamma globulin serum) which binds to and causes precipitation of the complexed growth hormone antiserum. Precipitated contents of the RIA tubes are then analyzed for the number of counts in a specified period of time in a gamma scintillation counter. A standard curve is prepared by plotting number of radioactive counts versus growth hormone (GH) level. GH levels of unknown are then determined by reference to the standard curve.
Serum GH was measured by RIA with reagents provided by the National Hormone and Pituitary Program.
Serum levels in Tables 3 and 4 are recorded in ng/mL in terms of the rat GH standard of 0.61 International Units/mg (IU/mg). Data is recorded as the mean ±standard error of the mean (SEM). Statistical analysis was performed with Student's t-test. In Table 3, the results shown are the average of studies with six rats.

Aib-DTrp-DPro-3-methylpiperidinamide [DPro-m-methylpiperidine]
In Vivo Release of Growth Hormone in Adult Beagle Dogs ([1]; oral dose 1 mg/kg, time 0 hr, 1 mg/kg): 2
In Vivo Release of Growth Hormone in Adult Beagle Dogs ([1]; oral dose 1 mg/kg, time 0.5 hr, 1 mg/kg): 53 and 63
In Vivo Release of Growth Hormone in Adult Beagle Dogs ([1]; oral dose 1 mg/kg, time 1 hr, 1 mg/kg): 19 and 32
In Vivo Release of Growth Hormone in Adult Beagle Dogs ([1]; oral dose 1 mg/kg, time 2 hr, 1 mg/kg): 15 and 17
In Vivo Release of Growth Hormone in Adult Beagle Dogs ([1]; oral dose 1 mg/kg, time 3 hr, 1 mg/kg): 9.6 and 13
In Vivo Release of Growth Hormone in Adult Beagle Dogs ([1]; oral dose 1 mg/kg, time 5 hr, 1 mg/kg): 2.2 and 1.5
In Vivo Release of Growth Hormone in Adult Beagle Dogs ([1]; oral dose 1 mg/kg, time 7 hr, 1 mg/kg): 2.2 and 3
In Vivo Release of Growth Hormone in Adult Beagle Dogs ([1]; oral dose 1 mg/kg, time 8 hr, 1 mg/kg): 1
In Vivo Release of Growth Hormone in Adult Beagle Dogs ([1]; oral dose 2 mg/kg, time 0.5 hr): 128
In Vivo Release of Growth Hormone in Adult Beagle Dogs ([1]; oral dose 2 mg/kg, time 1 hr): 59
In Vivo Release of Growth Hormone in Adult Beagle Dogs ([1]; oral dose 2 mg/kg, time 2 hr): 29
In Vivo Release of Growth Hormone in Adult Beagle Dogs ([1]; oral dose 2 mg/kg, time 3 hr): 12
In Vivo Release of Growth Hormone in Adult Beagle Dogs ([1]; oral dose 2 mg/kg, time 4 hr): 8.9
In Vivo Release of Growth Hormone in Adult Beagle Dogs ([1]; oral dose 2 mg/kg, time 6 hr): 3
In Vivo Release of Growth Hormone in Adult Beagle Dogs ([1]; oral dose 2 mg/kg, time 7 hr): 3
In Vivo Release of Growth Hormone in Adult Beagle Dogs ([1]; oral dose 4 mg/kg, time 1 hr): 55
In Vivo Release of Growth Hormone in Adult Beagle Dogs ([1]; oral dose 4 mg/kg, time 2 hr, 4 mg/kg): 50 and 54
In Vivo Release of Growth Hormone in Adult Beagle Dogs ([1]; oral dose 4 mg/kg, time 3 hr, 4 mg/kg): 52 and 53
In Vivo Release of Growth Hormone in Adult Beagle Dogs ([1]; oral dose 4 mg/kg, time 4 hr, 4 mg/kg): 20 and 34
In Vivo Release of Growth Hormone in Adult Beagle Dogs ([1]; oral dose 4 mg/kg, time 6 hr, 4 mg/kg): 11
In Vivo Release of Growth Hormone in Adult Beagle Dogs ([1]; oral dose 4 mg/kg, time 7 hr, 4 mg/kg): 11
In Vivo Release of Growth Hormone in Adult Beagle Dogs ([1]; oral dose 4F [sic] (mg/kg; F not explained), time 0 hr): 1.4
In Vivo Release of Growth Hormone in Adult Beagle Dogs ([1]; oral dose 4F [sic] (mg/kg; F not explained), time 0.5 hr): 72
In Vivo Release of Growth Hormone in Adult Beagle Dogs ([1]; oral dose 4F [sic] (mg/kg; F not explained), time 1 hr): 84
In Vivo Release of Growth Hormone in Adult Beagle Dogs ([1]; oral dose 4F [sic] (mg/kg; F not explained), time 2 hr): 18
In Vivo Release of Growth Hormone in Adult Beagle Dogs ([1]; oral dose 4F [sic] (mg/kg; F not explained), time 3 hr): 4.7
In Vivo Release of Growth Hormone in Adult Beagle Dogs ([1]; oral dose 4F [sic] (mg/kg; F not explained), time 4 hr): 3.5
In Vivo Release of Growth Hormone in Adult Beagle Dogs ([1]; oral dose 4F [sic] (mg/kg; F not explained), time 5 hr): 1.4
In Vitro Release of Growth Hormone in Rat, GH ([2]; compound at .0001 (dose unit not given)): 434 ng/mL
In Vitro Release of Growth Hormone in Rat, GH ([2]; compound at .0003 (dose unit not given)): 458 ng/mL
In Vitro Release of Growth Hormone in Rat, GH ([2]; compound at .001 (dose unit not given)): 633 ng/mL
In Vitro Release of Growth Hormone in Rat, GH ([2]; compound at .003 (dose unit not given)): 837 ng/mL
In Vitro Release of Growth Hormone in Rat, GH ([2]; compound at .01 (dose unit not given)): 968 ng/mL
In Vivo Release of Growth Hormone in Rat, GH ([3]; compound at 3 (dose unit not given)): 832 ng/mL
In Vivo Release of Growth Hormone in Rat, GH ([3]; compound at 10 (dose unit not given)): 1557 ng/mL
In Vivo Release of Growth Hormone in Rat, GH ([3]; compound at 30 (dose unit not given)): 1570 ng/mL
In Vivo Release of Growth Hormone in Rat, GH ([3]; compound at 100 (dose unit not given)): 1762 ng/mL
